Source: patent US6610715B1, “Cathecol hydrazone derivatives, process for preparing the same and pharmaceutical composition containing the same” (Cheil Jedang Corporation, priority 2001, dated 2003)

Test system: Phosphodiesterase IV partially purified from human U937 cells
Experiment: Inhibition of Phosphodiesterase IV Activity ([3H]cAMP hydrolysis, scintillation counting)
Type: biochemical
Conditions: 1.0 uM cAMP, 30° C., 20 minutes
Procedure: Compounds prepared by Examples 1 through 16 and Rolipram as control were tested on the inhibition of phosphodiesterase IV.
Phosphodiesterase IV partially purified from human U937 cells, test compound and 1.0 uM cAMP including 0.01 uM[^3H]cAMP were incubated at 30° C. for 20 minutes. The PDE reaction to convert cAMP into AMP was […] by boiling the reaction solution for 2 minutes. AMP was converted into adenosine by adding snake venom nucleotidase and incubating the reaction solution at 30° C. for 10 minutes. While unhydrolyzed cAMPs were bonded to AG1-X2 resin, the [^3H]adenosine in the aqueous solution was quantified by scintillation counting. The results are shown in Table I below, in which the values indicate inhibition (%) of the PDE IV by each test compound.

[1] = test compound concentration 2 uM
[2] = test compound concentration 20 uM

SMILES | Inhibition (%) of the PDE IV [1] [%] | Inhibition (%) of the PDE IV [2] [%]
COc1ccc(/C=N/NC(=O)c2ccncc2)cc1OC1CCCC1 [EXAMPLE 1, (E)-3-cyclopentyloxy-4-methoxybenzaldehyde isonicotinic hydrazone] | 38.4 | 66.7
CCOC(=O)N/N=C/c1ccc(OC)c(OC2CCCC2)c1 [EXAMPLE 2, (E)-ethyl[(3-cyclopentyloxy-4-methoxyphenyl)methylene]hydrazinoformate] | 46.7 | 63.7
COc1ccc(/C=N/Nc2ccccc2)cc1OC1CCCC1 [EXAMPLE 3, (E)-3-cyclopentyloxy-4-methoxybenzaldehyde phenylhydrazone] | 46.6 | 80.4
COc1ccc(/C=N/NC(C)=O)cc1OC1CCCC1 [EXAMPLE 4, (E)-3-cyclopentyloxy-4-methoxybenzaldehyde acetic hydrazone] | 51.7 | 72.1
COc1ccc(/C=N/NC2=NCCN2)cc1OC1CCCC1 [EXAMPLE 6, (E)-3-cyclopentyloxy-4-methoxybenzaldehyde 2-imidazolinohydrazone] | 31.7 | 58.3
COc1ccc(/C=N/NC(N)=O)cc1OC1CCCC1 [EXAMPLE 7, (E)-2-[(3-cyclopentyloxy-4-methoxyphenyl)methylene]hydrazinecarboxamide] | 66.2 | 89.7
COc1ccc(/C=N/NC(N)=S)cc1OC1CCCC1 [EXAMPLE 9, (E)-2-[(3-cyclopentyloxy-4-methoxyphenyl)methylene]hydrazinecarbothioamide] | 69.0 | 81.0
COc1ccc(/C=N/Nc2ccc(Cl)cc2)cc1OC1CCCC1 [EXAMPLE 10, (E)-3-cyclopentyloxy-4-methoxybenzaldehyde 4chlorophenylhydrazone] | 39.3 | 70.7
COc1ccc(/C=N/NC(=O)C[N+](C)(C)C)cc1OC1CCCC1 [EXAMPLE 11, (E)-2[(3-cyclopentyloxy-4-methoxyphenyl)methylene]hydrazinecarbonylmethyl(trimethyl)ammonium chloride] | 43.3 | 45.1
COc1ccc(/C=N/N2CCCCC2)cc1OC1CCCC1 [EXAMPLE 13, (E)-N-piperidino-3-cyclopentyloxy-4-methoxyphenylmethaneimine] | 31.4 | 73.3
COc1ccc(/C=N/NC(=N)N)cc1OC1CCCC1 [EXAMPLE 14, (E)-2-[(3-cyclopentyloxy-4-methoxyphenyl)methylene]hydrazinecarboximidamide] | 14.7 | 57.7
COc1ccc(/C=N/Nc2ccccn2)cc1OC1CCCC1 [EXAMPLE 15, (E)-3-cyclopentyloxy-4-methoxybenzaldehyde 2-pyridinylhydrazone] | 49.4 | 63.6
COc1ccc(/C=N/Nc2ccccc2C(=O)O)cc1OC1CCCC1 [EXAMPLE 16, (E)-3-cyclopentyloxy-4-methoxybenzaldehyde 2-carboxyphenylhydrazone] | 42.3 | 76.6
COc1ccc(C2CNC(=O)C2)cc1OC1CCCC1 (stereo not shown) [Rolipram, reference compound] | 62.5 | 70.1
